The values below come from paper PMC6956098 (2019).

In experiment [1] the test system is VDBA14 aptamer, 5'-Cy5-labeled (DNA, aptamer) AGCAGCACAGAGGTCATGGGGGGTGTGACTTTGGTGTGCCTATGCGTGCTACGGAA
Briefly: microscale thermophoresis. The conditions noted are these: 100 mM NaCl, 5 mM KCl, 2 mM MgCl2, 1 mM CaCl2, 20 mM Tris-HCl pH 7.6, 10% ethanol, 35 °C.

The test system of experiment [2] is VDBA14 aptamer, immobilized on microarray (DNA, aptamer) AGCAGCACAGAGGTCATGGGGGGTGTGACTTTGGTGTGCCTATGCGTGCTACGGAA
Put plainly: microarray fluorescence, displacement of Cy5-oligonucleotide. The conditions noted are these: 100 mM NaCl, 5 mM KCl, 2 mM MgCl2, 1 mM CaCl2; 20 mM Tris-HCl pH 7.6; tracer displaced: 50 nM 5'-Cy5-AAAGTCACAC (O3); 78% maximal reduction at 2 μM.

Experiment [3] deals with VDBA14 aptamer, 5'-NH2-modified (in solution) (DNA, aptamer) AGCAGCACAGAGGTCATGGGGGGTGTGACTTTGGTGTGCCTATGCGTGCTACGGAA
Briefly: microscale thermophoresis, displacement of Cy5-oligonucleotide. The conditions noted are these: 100 mM NaCl, 5 mM KCl, 2 mM MgCl2, 1 mM CaCl2, pH 7.6, 35 °C, tracer displaced: 10 nM 5'-Cy5-AAAGTCACAC (O3), 10 nM aptamer.

For `C=C1CC[C@H](O)C/C1=C/C=C1\CCC[C@]2(C)[C@@H]([C@H](C)CCCC(C)C)CC[C@@H]12`, in experiment [1] (highest concentration 10 μM), the binding result was “no”.

Broadly, the Kd is the concentration at which binding is half-saturated. A lower Kd goes with a tighter complex. In general, apparent Kd refers to the concentration giving half-maximal binding under the conditions of the assay. As to `C=C1CC[C@H](O)C/C1=C/C=C1\CCC[C@]2(C)[C@@H]([C@H](C)CCCC(C)(C)O)CC[C@@H]12`, the equilibrium dissociation constant (Kd) in experiment [1] (no binding observed at room temperature) was 14.99 nM. Moreover, in experiment [2], the binding entry is reported as “yes”. In addition, the “apparent Kd” value in experiment [3] turned out to be 1 ± 0.18 nM.
